ChEMBL document CHEMBL2331478, “Evaluation of constituents of Piper retrofractum fruits on neurotrophic activity” (J Nat Prod, 2013)
Active and inactive are the calls of the source. No cut-off for these calls is given here.

Assays:
PC-12 [1] = assay: Potentiation of NGF-induced neurite outgrowth in rat PC12 cells at 0.1 to 10 uM after 4 days using methylene blue staining by phase-contrast microscopy; type: functional, cell-based
PC-12 [2] = assay: Potentiation of NGF-induced neurite outgrowth in rat PC12 cells after 4 days using methylene blue staining by phase-contrast microscopy; type: functional, cell-based

O=C(/C=C/C=C/c1ccc2c(c1)OCO2)N1CCCCC1
Activity (PC-12 [1]): inactive

O=C(/C=C/CCCCCCCC/C=C/c1ccc2c(c1)OCO2)N1CCCCC1
Activity (PC-12 [1]): inactive

O=C(CCC(=O)c1ccc2c(c1)OCO2)C(=O)N1CCCCC1
Activity (PC-12 [2]): Dose-dependent effect

CCCCC/C=C\CCCC/C=C/C=C/C(=O)NCC(C)C
Activity (PC-12 [1]): inactive
